Assay results from patent US12723063B2, “GIPR-agonist compounds” (Eli Lilly and Company, priority 2019, dated 2026).
*1 amine or outer side, *2 acyl side, *3 side chain or, on linkers, in order; H or OH if unused. Where a SMILES comes first, the peptide text is derived from it. Side-chain parts run from the residue outwards. [ ]: non-standard residue; d: D form. The star is where a group is joined. C20 diacid = O=C(O)CCCCCCCCCCCCCCCCCCC(=O)*; C18 diacid = O=C(O)CCCCCCCCCCCCCCCCC(=O)*; αMePhe(2-F) = C[C@](N)(Cc1ccccc1F)C(=O)O; γGlu = O=C(O)[C@H](CCC(=O)[*:2])N[*:1]; 4Pal = N[C@@H](Cc1ccncc1)C(=O)O; αMeL = CC(C)C[C@](C)(N)C(=O)O; AEEA = NCCOCCOCC(=O)O; Aib = CC(C)(N)C(=O)O

Legend:
Assay in all cases: cAMP functional assay (HTRF) in HEK293 cells in presence of 0.1% casein
Format in all cases: cell-based
[1] = biological target: T1, human GLP-1 receptor (GLP-1R) (Homo sapiens, UniProt P43220); details: HEK293 cells expressing human GLP-1R, geometric mean, read-out: hGLP1R cAMP Rel EC50 nM (SEM, n)
T1 construct: expressed in transfected cells; host or cells: HEK293
T1 sequence (P43220 24-463): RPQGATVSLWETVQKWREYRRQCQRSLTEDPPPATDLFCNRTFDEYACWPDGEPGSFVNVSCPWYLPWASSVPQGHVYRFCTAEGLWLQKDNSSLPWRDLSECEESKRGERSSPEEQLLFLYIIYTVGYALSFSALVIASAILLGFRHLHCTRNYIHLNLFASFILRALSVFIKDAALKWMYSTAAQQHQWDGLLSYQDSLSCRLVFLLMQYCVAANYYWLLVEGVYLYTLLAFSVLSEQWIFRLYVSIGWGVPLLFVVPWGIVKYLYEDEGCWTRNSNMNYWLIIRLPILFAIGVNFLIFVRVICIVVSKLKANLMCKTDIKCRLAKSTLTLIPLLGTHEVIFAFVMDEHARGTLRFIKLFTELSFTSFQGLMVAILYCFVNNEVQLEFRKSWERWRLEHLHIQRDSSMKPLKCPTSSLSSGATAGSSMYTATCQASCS

[2] = biological target: T2, human glucagon receptor (GcgR) (Homo sapiens, UniProt P47871); details: HEK293 cells expressing human GcgR, geometric mean, read-out: hGcgR cAMP Rel EC50 nM (SEM, n)
T2 construct: expressed in transfected cells; host or cells: HEK293
T2 sequence (P47871 26-477): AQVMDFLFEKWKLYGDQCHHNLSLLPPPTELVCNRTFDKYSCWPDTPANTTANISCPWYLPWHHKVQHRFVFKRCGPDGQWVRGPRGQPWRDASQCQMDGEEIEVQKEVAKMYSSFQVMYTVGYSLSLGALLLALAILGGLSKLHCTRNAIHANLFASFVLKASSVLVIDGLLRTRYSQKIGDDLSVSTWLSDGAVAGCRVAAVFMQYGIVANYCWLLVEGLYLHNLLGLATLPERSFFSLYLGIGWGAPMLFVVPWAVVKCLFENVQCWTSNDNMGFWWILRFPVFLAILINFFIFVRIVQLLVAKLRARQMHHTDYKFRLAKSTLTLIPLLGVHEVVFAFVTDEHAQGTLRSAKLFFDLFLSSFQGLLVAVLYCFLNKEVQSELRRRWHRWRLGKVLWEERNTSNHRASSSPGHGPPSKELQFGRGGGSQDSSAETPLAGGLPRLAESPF

[3] = biological target: T3, human glucose-dependent insulinotropic peptide receptor (GIPR) (Homo sapiens, UniProt P48546); details: HEK293 cells expressing human GIPR, geometric mean, read-out: hGIPR cAMP Rel EC50 nM (SEM, n)
T3 construct: expressed in transfected cells; host or cells: HEK293
T3 sequence (P48546 22-466): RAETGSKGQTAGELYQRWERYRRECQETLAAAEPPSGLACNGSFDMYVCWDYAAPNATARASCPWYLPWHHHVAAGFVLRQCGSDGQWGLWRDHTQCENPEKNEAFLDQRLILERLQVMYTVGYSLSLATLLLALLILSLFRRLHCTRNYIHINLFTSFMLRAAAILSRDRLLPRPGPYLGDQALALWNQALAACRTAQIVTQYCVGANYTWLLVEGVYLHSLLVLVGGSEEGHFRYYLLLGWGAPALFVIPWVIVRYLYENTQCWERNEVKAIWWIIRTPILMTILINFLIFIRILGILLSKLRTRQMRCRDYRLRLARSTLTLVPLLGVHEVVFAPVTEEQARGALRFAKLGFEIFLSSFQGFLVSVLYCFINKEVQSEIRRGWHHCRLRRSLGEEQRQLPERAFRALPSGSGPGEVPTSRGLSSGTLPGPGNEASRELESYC

**Q.** `CC[C@H](C)[C@H](NC(=O)[C@H](CO)NC(=O)[C@H](Cc1ccc(O)cc1)NC(=O)[C@H](CC(=O)O)NC(=O)[C@H](CO)NC(=O)[C@@H](NC(=O)[C@](C)(Cc1ccccc1F)NC(=O)[C@@H](NC(=O)CNC(=O)[C@H](CCC(=O)O)NC(=O)[C@H](C)NC(=O)[C@@H](Cc1ccc(O)cc1)NC(C)=O)[C@@H](C)O)[C@@H](C)CC)C(=O)N[C@@H](C)C(=O)N[C@@H](CC(C)C)C(=O)N[C@@H](CC(=O)O)C(=O)N[C@@H](CCCCN)C(=O)N[C@@H](CCCCNC(=O)COCCOCCNC(=O)COCCOCCNC(=O)CC[C@H](NC(=O)CCCCCCCCCCCCCCCCC(=O)O)C(=O)O)C(=O)N[C@@H](Cc1c[nH]cn1)C(=O)N[C@@H](CCC(N)=O)C(=O)NC(C)(C)C(=O)N[C@@H](CCC(=O)O)C(=O)N[C@@H](Cc1ccccc1)C(=O)N[C@H](C(=O)N[C@@H](CC(N)=O)C(=O)N[C@@H](Cc1ccc(O)cc1)C(=O)N[C@@H](CC(C)C)C(=O)N[C@@H](CC(C)C)C(=O)N[C@@H](C)C(=O)NCC(=O)NCC(=O)N1CCC[C@H]1C(=O)N[C@@H](CO)C(=O)N[C@@H](CO)C(=O)NCC(=O)N[C@@H](C)C(=O)N1CCC[C@H]1C(=O)N1CCC[C@H]1C(=O)N1CCC[C@H]1C(=O)N[C@@H](CO)C(N)=O)C(C)C` [Example 30] (Ac-[dY]AEGT[αMePhe(2-F)]ISDYSIALDKK([AEEA-AEEA-γGlu-C18 diacid])HQ[Aib]EFVNYLLAGGPSSGAPPPS-NH2) was tested. Which EC50 [1] did it give?
**A.** > 5000 nM

**Q.** And the EC50 [2]?
**A.** > 5000 nM

**Q.** And the EC50 [3]?
**A.** 0.00572 nM

**Q.** For `CC[C@H](C)[C@H](NC(=O)[C@H](CC(C)C)NC(=O)[C@@H](NC(=O)CNC(=O)[C@H](CCC(=O)O)NC(=O)C(C)(C)NC(=O)[C@@H](N)Cc1ccc(O)cc1)[C@@H](C)O)C(=O)N[C@@H](CO)C(=O)N[C@@H](CC(=O)O)C(=O)N[C@@H](Cc1ccc(O)cc1)C(=O)N[C@@H](CO)C(=O)N[C@H](C(=O)N[C@@](C)(CC(C)C)C(=O)N[C@@H](CC(C)C)C(=O)N[C@@H](CC(=O)O)C(=O)N[C@@H](CCCCN)C(=O)N[C@@H](CCCCNC(=O)COCCOCCNC(=O)COCCOCCNC(=O)CC[C@H](NC(=O)CCCCCCCCCCCCCCCCCCC(=O)O)C(=O)O)C(=O)N[C@@H](Cc1c[nH]cn1)C(=O)N[C@@H](CCC(N)=O)C(=O)NC(C)(C)C(=O)N[C@@H](CCC(=O)O)C(=O)N[C@@H](Cc1ccccc1)C(=O)N[C@H](C(=O)N[C@@H](CCC(=O)O)C(=O)N[C@@H](Cc1ccc(O)cc1)C(=O)N[C@@H](CC(C)C)C(=O)N[C@@H](CC(C)C)C(=O)N[C@@H](CCC(=O)O)C(=O)NCC(=O)NCC(=O)N1CCC[C@H]1C(=O)N[C@@H](CO)C(=O)N[C@@H](CO)C(=O)NCC(=O)N[C@@H](C)C(=O)N1CCC[C@H]1C(=O)N1CCC[C@H]1C(=O)N1CCC[C@H]1C(=O)N[C@@H](CO)C(N)=O)C(C)C)[C@@H](C)CC` [Example 73] (H-Y[Aib]EGTLISDYSI[αMeL]LDKK([AEEA-AEEA-γGlu-C20 diacid])HQ[Aib]EFVEYLLEGGPSSGAPPPS-NH2), which EC50 [1] is on record?
**A.** > 5000 nM

**Q.** And the EC50 [2]?
**A.** > 5000 nM

**Q.** And the EC50 [3]?
**A.** 0.0151 nM

**Q.** For `CC[C@H](C)[C@H](NC(=O)[C@H](CO)NC(=O)[C@H](Cc1ccc(O)cc1)NC(=O)[C@H](CC(=O)O)NC(=O)[C@H](CO)NC(=O)[C@@H](NC(=O)[C@](C)(Cc1ccccc1F)NC(=O)[C@@H](NC(=O)CNC(=O)[C@H](CCC(=O)O)NC(=O)C(C)(C)NC(=O)[C@@H](N)Cc1ccc(O)cc1)[C@@H](C)O)[C@@H](C)CC)C(=O)N[C@@H](CC(C)C)C(=O)N[C@@H](CC(C)C)C(=O)N[C@@H](CC(=O)O)C(=O)N[C@@H](CCCCN)C(=O)N[C@H](C(=O)N[C@@H](Cc1c[nH]cn1)C(=O)N[C@@H](CCC(N)=O)C(=O)NC(C)(C)C(=O)N[C@@H](CC(=O)O)C(=O)N[C@@H](Cc1ccccc1)C(=O)N[C@H](C(=O)N[C@@H](CCC(=O)O)C(=O)N[C@@H](Cc1ccncc1)C(=O)N[C@@H](CCCCNC(=O)COCCOCCNC(=O)COCCOCCNC(=O)CC[C@H](NC(=O)CCCCCCCCCCCCCCCCCCC(=O)O)C(=O)O)C(=O)N[C@@H](CC(C)C)C(=O)N[C@@H](CCC(=O)O)C(=O)N[C@@H](CCC(N)=O)C(=O)NCC(=O)N1CCC[C@H]1C(=O)N[C@@H](CO)C(=O)N[C@@H](CO)C(=O)NCC(=O)N[C@@H](C)C(=O)N1CCC[C@H]1C(=O)N1CCC[C@H]1C(=O)N1CCC[C@H]1C(=O)N[C@@H](CO)C(N)=O)C(C)C)[C@@H](C)CC` [Example 121] (H-Y[Aib]EGT[αMePhe(2-F)]ISDYSILLDKIHQ[Aib]DFVE[4Pal]K([AEEA-AEEA-γGlu-C20 diacid])LEQGPSSGAPPPS-NH2), which EC50 [1] is on record?
**A.** > 5000 nM

**Q.** And the EC50 [2]?
**A.** > 5000 nM

**Q.** What about the EC50 [3] of the same compound?
**A.** 0.0196 nM

**Q.** Which EC50 [1] does the source give for `CC[C@H](C)[C@H](NC(=O)[C@H](CO)NC(=O)[C@H](Cc1ccc(O)cc1)NC(=O)[C@H](CC(=O)O)NC(=O)[C@H](CO)NC(=O)[C@@H](NC(=O)[C@H](Cc1ccccc1)NC(=O)[C@@H](NC(=O)CNC(=O)[C@H](CCC(=O)O)NC(=O)[C@@H](C)NC(=O)[C@@H](N)Cc1ccc(O)cc1)[C@@H](C)O)[C@@H](C)CC)C(=O)N[C@@H](CC(C)C)C(=O)N[C@@H](CC(C)C)C(=O)N[C@@H](CC(=O)O)C(=O)N[C@@H](CCCCN)C(=O)N[C@@H](CCCCNC(=O)COCCOCCNC(=O)COCCOCCNC(=O)CC[C@H](NC(=O)CCCCCCCCCCCCCCCCC(=O)O)C(=O)O)C(=O)N[C@@H](C)C(=O)N[C@@H](CCC(N)=O)C(=O)NC(C)(C)C(=O)N[C@@H](CCC(=O)O)C(=O)N[C@@H](Cc1ccccc1)C(=O)N[C@H](C(=O)N[C@@H](CCC(=O)O)C(=O)N[C@@H](Cc1c[nH]c2ccccc12)C(=O)N[C@@H](CC(C)C)C(=O)N[C@@H](CC(C)C)C(=O)N[C@@H](C)C(=O)NCC(=O)NCC(=O)N1CCC[C@H]1C(=O)N[C@@H](CO)C(=O)N[C@@H](CO)C(=O)NCC(=O)N[C@@H](C)C(=O)N1CCC[C@H]1C(=O)N1CCC[C@H]1C(=O)N1CCC[C@H]1C(=O)N[C@@H](CO)C(N)=O)C(C)C` [Example 29] (H-Y[dA]EGTFISDYSILLDKK([AEEA-AEEA-γGlu-C18 diacid])AQ[Aib]EFVEWLLAGGPSSGAPPPS-NH2) here?
**A.** > 5000 nM

**Q.** And the EC50 [2]?
**A.** > 5000 nM

**Q.** And the EC50 [3]?
**A.** 0.00679 nM

**Q.** Which EC50 [1] does the source give for `CC[C@H](C)[C@H](NC(=O)[C@H](CO)NC(=O)[C@H](Cc1ccc(O)cc1)NC(=O)[C@H](CC(=O)O)NC(=O)[C@H](CO)NC(=O)[C@@H](NC(=O)[C@H](Cc1ccccc1)NC(=O)[C@@H](NC(=O)CNC(=O)[C@H](CCC(=O)O)NC(=O)[C@@H](C)NC(=O)[C@@H](N)Cc1ccc(O)cc1)[C@@H](C)O)[C@@H](C)CC)C(=O)N[C@@H](CC(C)C)C(=O)N[C@@H](CC(C)C)C(=O)N[C@@H](CC(=O)O)C(=O)N[C@@H](CCCCN)C(=O)N[C@@H](CCCCNC(=O)COCCOCCNC(=O)COCCOCCNC(=O)CC[C@H](NC(=O)CCCCCCCCCCCCCCCCC(=O)O)C(=O)O)C(=O)N[C@@H](C)C(=O)N[C@@H](CCC(N)=O)C(=O)NC(C)(C)C(=O)N[C@@H](CC(=O)O)C(=O)N[C@@H](Cc1ccccc1)C(=O)N[C@H](C(=O)N[C@@H](CC(N)=O)C(=O)N[C@@H](Cc1ccncc1)C(=O)N[C@@H](CC(C)C)C(=O)N[C@@H](CC(C)C)C(=O)N[C@@H](C)C(=O)N[C@@H](CCC(N)=O)C(=O)NCC(=O)N1CCC[C@H]1C(=O)N[C@@H](CO)C(=O)N[C@@H](CO)C(=O)NCC(=O)N[C@@H](C)C(=O)N1CCC[C@H]1C(=O)N1CCC[C@H]1C(=O)N1CCC[C@H]1C(=O)N[C@@H](CO)C(N)=O)C(C)C` [Example 18] (H-Y[dA]EGTFISDYSILLDKK([AEEA-AEEA-γGlu-C18 diacid])AQ[Aib]DFVN[4Pal]LLAQGPSSGAPPPS-NH2) here?
**A.** > 5000 nM

**Q.** And the EC50 [2]?
**A.** > 5000 nM

**Q.** And the EC50 [3]?
**A.** 0.00656 nM

**Q.** What does the source list for `CC[C@H](C)[C@H](NC(=O)[C@H](CO)NC(=O)[C@H](Cc1ccc(O)cc1)NC(=O)[C@H](CC(=O)O)NC(=O)[C@H](CO)NC(=O)[C@@H](NC(=O)[C@H](Cc1ccccc1)NC(=O)[C@@H](NC(=O)CNC(=O)[C@H](CCC(=O)O)NC(=O)[C@@H](C)NC(=O)[C@@H](N)Cc1ccc(O)cc1)[C@@H](C)O)[C@@H](C)CC)C(=O)N[C@@H](CC(C)C)C(=O)N[C@@H](CC(C)C)C(=O)N[C@@H](CC(=O)O)C(=O)N[C@@H](CCCCN)C(=O)N[C@@H](CCCCNC(=O)COCCOCCNC(=O)COCCOCCNC(=O)CC[C@H](NC(=O)CCCCCCCCCCCCCCCCCCC(=O)O)C(=O)O)C(=O)N[C@@H](C)C(=O)N[C@@H](CCC(N)=O)C(=O)N[C@@H](CCC(N)=O)C(=O)N[C@@H](CC(=O)O)C(=O)N[C@@H](Cc1ccccc1)C(=O)N[C@H](C(=O)N[C@@H](CC(N)=O)C(=O)N[C@@H](Cc1c[nH]c2ccccc12)C(=O)N[C@@H](CC(C)C)C(=O)N[C@@H](CC(C)C)C(=O)N[C@@H](C)C(=O)N[C@@H](CCC(N)=O)C(=O)NCC(=O)N1CCC[C@H]1C(=O)N[C@@H](CO)C(=O)N[C@@H](CO)C(=O)NCC(=O)N[C@@H](C)C(=O)N1CCC[C@H]1C(=O)N1CCC[C@H]1C(=O)N1CCC[C@H]1C(=O)N[C@@H](CO)C(N)=O)C(C)C` [Example 11] (H-Y[dA]EGTFISDYSILLDKK([AEEA-AEEA-γGlu-C20 diacid])AQQDFVNWLLAQGPSSGAPPPS-NH2)?
**A.** EC50 [1]: > 100 nM; EC50 [2]: 445 nM; EC50 [3]: 0.0738 nM
